The data set concerns CCRIS mutagenicity, Ames/micronucleus/aberration tests. The experiment in a line: CCRIS mutagenicity studies.
Setting [1] is: Test System: AMES SALMONELLA TYPHIMURIUM, Strain/Indicator: TA98, Metabolic Activation: NONE, Method: STANDARD PLATE.
Where [2] appears, read: Test System: AMES SALMONELLA TYPHIMURIUM, Strain/Indicator: TA98, Metabolic Activation: RAT, LIVER, S-9, AROCLOR 1254, Method: STANDARD PLATE.
[3] abbreviates: Test System: AMES SALMONELLA TYPHIMURIUM, Strain/Indicator: TA100, Metabolic Activation: NONE, Method: STANDARD PLATE.
Setting [4] is: Test System: AMES SALMONELLA TYPHIMURIUM, Strain/Indicator: TA100, Metabolic Activation: RAT, LIVER, S-9, AROCLOR 1254, Method: STANDARD PLATE.

The source made the active and inactive calls. How the calls were made is not given here.

`Cc1nc2c(c3[nH]c4ccccc4c13)C(=O)C(N1CC1)=CC2=O`: the mutagenic call is “active; positive” (Test System: AMES SALMONELLA TYPHIMURIUM, Strain/Indicator: TA97, Metabolic Activation: NONE, Method: STANDARD PLATE); “active; positive” (Test System: AMES SALMONELLA TYPHIMURIUM, Strain/Indicator: TA97, Metabolic Activation: RAT, LIVER, S-9, AROCLOR 1254, Method: STANDARD PLATE); “active; positive” under setting [1]; “active; positive” under setting [2]; “active; positive” under setting [3]; “active; positive” under setting [4]. The mutagenic call is “active; positive” (Test System: AMES SALMONELLA TYPHIMURIUM, Strain/Indicator: TA102, Metabolic Activation: NONE, Method: STANDARD PLATE) and “active; positive” (Test System: AMES SALMONELLA TYPHIMURIUM, Strain/Indicator: TA102, Metabolic Activation: RAT, LIVER, S-9, AROCLOR 1254, Method: STANDARD PLATE).
With `COc1cc(O)c2c(c1)C1=C[C@H](O)[C@@H](O)C[C@]1(C)OC2=O`, the mutagenic call runs as follows: (End Point: Ames Salmonella typhimurium, Strain/Indicator: TA97, Metabolic Activation: None, Method: Standard plate) “inactive; negative. nitrosation did not increase mutagenicity”; (End Point: Ames Salmonella typhimurium, Strain/Indicator: TA97, Metabolic Activation: Rat, Liver, S-9, Aroclor 1254 (10%), Method: Standard plate) “inactive; negative. nitrosation did not increase mutagenicity”; (End Point: Ames Salmonella typhimurium, Strain/Indicator: TA102, Metabolic Activation: None, Method: Standard plate) “inactive; negative. nitrosation did not increase mutagenicity”; (End Point: Ames Salmonella typhimurium, Strain/Indicator: TA102, Metabolic Activation: Rat, Liver, S-9, Aroclor 1254 (10%), Method: Standard plate) “inactive; negative. nitrosation did not increase mutagenicity”; (End Point: Ames Salmonella typhimurium, Strain/Indicator: TA104, Metabolic Activation: None, Method: Standard plate) “inactive; negative. nitrosation did not increase mutagenicity”; (End Point: Ames Salmonella typhimurium, Strain/Indicator: TA104, Metabolic Activation: Rat, Liver, S-9, Aroclor 1254 (10%), Method: Standard plate) “inactive; negative. nitrosation did not increase mutagenicity”. For the same molecule, the mutagenic call runs as follows: under setting [1], “inactive; negative”; (Test System: AMES SALMONELLA TYPHIMURIUM, Strain/Indicator: TA98, Metabolic Activation: RAT LIVER S-9, AROCLOR 1254, Method: STANDARD PLATE) “inactive; negative”; under setting [3], “inactive; negative”; (Test System: AMES SALMONELLA TYPHIMURIUM, Strain/Indicator: TA100, Metabolic Activation: RAT LIVER S-9, AROCLOR 1254, Method: STANDARD PLATE) “inactive; negative”.
As for `CCOP(=O)(OCC)O/C(=C\Cl)c1ccc(Cl)cc1Cl`, the mutagenic call was “inactive; negative” under setting [1]; “inactive; negative” under setting [2]; “inactive; negative” under setting [4]; “inactive; negative” (Test System: AMES SALMONELLA TYPHIMURIUM, Strain/Indicator: TA100, Metabolic Activation: S-9 MIX, Method: STANDARD PLATE); “inactive; negative” (Test System: AMES SALMONELLA TYPHIMURIUM, Strain/Indicator: TA1535, Metabolic Activation: NONE, Method: STANDARD PLATE); “inactive; negative” (Test System: AMES SALMONELLA TYPHIMURIUM, Strain/Indicator: TA1535, Metabolic Activation: RAT, LIVER, S-9, AROCLOR 1254, Method: STANDARD PLATE). Further, the mutagenic call runs as follows: (Test System: AMES SALMONELLA TYPHIMURIUM, Strain/Indicator: TA1537, Metabolic Activation: NONE, Method: STANDARD PLATE) “inactive; negative”; (Test System: AMES SALMONELLA TYPHIMURIUM, Strain/Indicator: TA1537, Metabolic Activation: RAT, LIVER, S-9, AROCLOR 1254, Method: STANDARD PLATE) “inactive; negative”; (Test System: AMES SALMONELLA TYPHIMURIUM, Strain/Indicator: TA1538, Metabolic Activation: NONE, Method: STANDARD PLATE) “inactive; negative”; (Test System: AMES SALMONELLA TYPHIMURIUM, Strain/Indicator: TA1538, Metabolic Activation: RAT, LIVER, S-9, AROCLOR 1254, Method: STANDARD PLATE) “inactive; negative”.
Regarding `CC(=O)c1ccc(N=O)cc1`, the mutagenic call by setting is: under setting [1], “active; positive”; under setting [2], “active; positive”; under setting [3], “active; positive”; under setting [4], “inactive; negative”.
Consider `CCCOS(=O)(=O)OCCC`, for which, for the setting “End Point: In vitro micronucleus, Test System: Chinese Hamster Ovary (CHO-WBL) cells, Metabolic Activation: None”, the mutagenic call was “active; positive (p<0.01)”.

Values taken from PubChem BioAssay AID1259407 (Chemical Carcinogenesis Research Information System (CCRIS), 2018).
